How the values were obtained:
[1] = human, in vivo; for AUCinf, geometric LS mean, Reference / Cmax, geometric LS mean, Reference: 400 mg
[2] = human, in vivo
[3] = in vivo

SMILES | AUCinf, geometric LS mean, Test [1] [ng·h/mL] | Cmax, geometric LS mean, Test [1] [ng/mL] | AUCinf, geometric LS mean, Reference [1] [ng·h/mL] | Cmax, geometric LS mean, Reference [1] [ng/mL] | Change in geometric mean AUCtau from the first to the last dose [2] | Fe0-8 recovered in urine, of the last dose [3]
Nc1nc(/C(=C/CC(=O)O)C(=O)N[C@@H]2C(=O)N3C(C(=O)O)=CCS[C@H]23)cs1 (relative stereo) [Cis-ceftibuten, cis-ceftibuten] | 79030 | 15410 | 90090 | 17560 | 44-52% | 50-68%
Nc1nc(/C(=C\CC(=O)O)C(=O)N[C@@H]2C(=O)N3C(C(=O)O)=CCS[C@H]23)cs1 (relative stereo) [Trans-ceftibuten, trans-ceftibuten] | 8946 | 1319 | 10400 | 1552 | 64-75% | 20-23%
